From patent US9452990B2, “Complement pathway modulators and uses thereof” (NOVARTIS AG, priority 2012, dated 2016)
Structures can show the parent of a compound that is named as a salt. Where two headings read alike, the source gives them in different places.

Biological target: human complement factor B (CVF-Bb complex) (Homo sapiens (Human), UniProt P00751)
Experiment: Human Complement Factor B ELISA Assay
Type: biochemical
How it was run: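 Preformed CVF-Bb complex (3 nM; cobra venom factor with recombinant human factors B and D) preincubated with compound 1 h, RT, in PBS pH 7.4, 10 mM MgCl2, 0.05% CHAPS. Plasma C3 added at 1 μM final for 1 h, then stopped; C3a product measured by ELISA, IC50 from % inhibition.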

[1] = CVF-Bb complex 3 nM, 1 hour preincubation with compound at room temperature, human C3 substrate 1 μM, C3a quantified by ELISA, read-out: Factor B IC50

SMILES: COc1cc2c(N)nc(N3CCN(C(=O)C[C@@H](N)c4ccc(C)s4)CC3)nc2c(F)c1OC [Example 38, (R)-3-Amino-1-[4-(4-amino-8-fluoro-6,7-dimethoxy-quinazolin-2-yl)piperazin-1-yl]-3-(5-methyl-thiophen-2-yl)-propan-1-one]
- IC50 [1]: 180 nM

SMILES: COc1cc2c(N)nc(N3CCN(C(=O)/C=C/C4CC4)CC3)nc2c(F)c1OC [Example 1, (E)-1-[4-(4-Amino-8-fluoro-6,7-dimethoxy-quinazolin-2-yl)-piperazin-1-yl]-3-cyclopropyl-propenone hydrochloride]
- IC50 [1]: 500 nM

SMILES: CC[C@H]1CN(C(=O)C[C@@H](N)c2ccc(C#N)cc2)CCN1c1nc(N)c2cc(OC)c(OC)c(F)c2n1 [Example 64, 4-{(R)-1-Amino-3-[(S)-4-(4-amino-8-fluoro-6,7-dimethoxy-quinazolin-2-yl)-3-ethyl-piperazin-1-yl]-3-oxo-propyl}-benzonitrile hydrochloride]
- IC50: 7 nM

SMILES: COc1cc2c(N)nc(N3CCN(C(=O)C[C@@H](N)c4cccc(Cl)c4)CC3)nc2c(F)c1OC [Example 47, (R)-3-Amino-1-[4-(4-amino-8-fluoro-6,7-dimethoxy-quinazolin-2-yl)-piperazin-1-yl]-3-(3-chloro-phenyl)-propan-1-one]
- IC50 [1]: 110 nM

SMILES: COc1cc2c(N)nc(N3CCN(C(=O)C[C@@H]4CCCN4)C[C@@H]3C)nc2c(F)c1OC [Example 115, 1-[(S)-4-(4-Amino-8-fluoro-6,7-dimethoxy-quinazolin-2-yl)-3-methyl-piperazin-1-yl]-2-(S)-pyrrolidin-2-yl-ethanone]
- IC50 [1]: 320 nM
